Assay results taken from patent publication US5444077A, “Ameliorant of cerebral circulation and optical isomer of NB-818, processes for its use” (Banyu Pharmaceutical Co., Ltd., priority 1987, dated 1995).

Assays:
vertebral artery [1] = assay: Effect of optical isomers to increase the blood flow of the vertebral artery in anesthetized beagle dogs (Pharmacological Test Example 6); format: in vivo, beagle dog; details: intravenous
Description: (§1) Effect to increase the blood flow of the vertebral artery
(§2) A male or female beagle dog having a body weight of about 10 kg was anesthetized by subcutaneous administration of 35 mg/kg of sodium pentobarbital, and the level of anesthesia was maintained by continuous injection of from 4 to 6 mg/kg/hr of sodium pentobarbital.
(§3) The test was conducted by maintaining the blood gases under optimum conditions under artificial respiration. A drug was dissolved in a 0.9 wt % saline containing 10% by weight of polyethylene glycol and 10% by weight of ethanol, and a predetermined amount of the solution was intravenously injected to the beagle dog. Then, the blood flow, the blood pressure and the heart rate were measured.
The blood flow was measured by an electromagnetic flow meter by means of blood flow probes attached to the vertebral artery and the femoral artery of the beagle dog. The blood pressure was measured by a pressure transducer connected to a canule inserted to the left femoral artery of the beagle dog. Further, the heart rate was measured by a heart rate counter based on the pulse wave of blood pressure.
The levo-rotatory optical isomer of 2-carbamoyloxymethyl-4-(2,3-dichlorophenyl)-6-methyl-1,4-dihydropyridine-3,5-dicarboxylic acid 3-isopropyl ester 5-methyl ester will be hereinafter referred to simply as (-)-NB-818, and the dextro-rotatory optical isomer thereof will be referred to simply as (+)-NB-818.

vertebral artery [2] = assay: as above; format: in vivo, beagle dog
vertebral artery [3] = assay: Effect to increase the blood flow of the vertebral artery in anesthetized beagle dogs (Pharmacological Test Example 1); format: in vivo, beagle dog
Description: as §1, §2
as §3, with “intravenously or intraduodenally” for “intravenously”
The blood flow was measured by an electromagnetic flow meter by means of blood flow probes attached to the vertebral artery and the femoral artery of the beagle dog. The blood pressure was measured by a pressure transducer connected to a canule inserted to the left femoral artery of the beagle dog.

[4] = test system: cerebral regional blood flow; assay: Effect to increase the cerebral regional blood flow in monkeys (Pharmacological Test Example 3); format: in vivo, Rhesus monkey; details: 0.01 mg/kg, intravenous
Description: Effect to increase the cerebral regional blood flow in monkeys
A male Rhesus monkey having a body weight of from 5.0 to 11.0 kg was anesthetized with ketamine hydrochloride (1 mg/kg by intravenous injection) and sodium pentobarbital (30 mg/kg by intraperitoneal injection), and an endotracheal tube was inserted for artificial respiration. Then, the animal's head was fixed to a stereotaxic apparatus. The cerebral blood flow was calculated from the hydrogen gas clearance curve measured by means of needle type electrodes for hydrogen gas clearance inserted to the cerebral cortex after incising the head and boring a hole in the occipital lobe.
The drug was dissolved in a 0.9 wt % saline containing 10% by weight of polyethylene glycol 300 and 10% by weight of ethanol, and the solution was intravenously administered.

[5] = test system: cerebral regional blood flow; assay: Effect to increase the cerebral regional blood flow in rabbits (Pharmacological Test Example 2); format: in vivo, rabbit; details: 0.01 mg/kg, intravenous
Description: A male rabbit having a body weight of about 3 kg was immobilized by intravenous injection of gallamine (2-3 mg/kg) and secured to an apparatus for fixing the brain position. Then, platinum electrodes for measuring hydrogen gas clearance were inserted to the top of cerebral cortex, to the center of the cerebellum and to the femoral muscle, and the blood flows were measured. The drug was dissolved in a 0.9 wt % saline containing 10% by weight of polyethylene glycol and 10% by weight of ethanol, and the solution was intravenously injected.

[6] = test system: cerebral isochemia models of Mongolian gerbils; assay: Effect to prolong the life in the cerebral ischemia models of Mongolian gerbils (Pharmacological Test Example 4); format: in vivo, Mongolian gerbil; details: 0.01 mg/kg, intraperitoneal; control 100
Description: Effect to prolong the life in the cerebral isochemia models of Mongolian gerbils
A male Mongolian gerbil having a body weight of about 70 g was anesthetized by intraperitoneal administration of 70 mg/kg of ketamine hydrochloride. Then, left and right common carotid arteries were exposed and closed by scorbil clips for 20 minutes. Then, the clips were removed to regain the blood flow. Thirty minutes later, a drug dissolved in a 0.9 wt % saline containing 10% by weight of polyethylene glycol 300 and 10% by weight of ethanol, was intraperitoneally administered. The effect to prolong the life was determined by observing mortality and the neurotic symptom during 8 hours or 24 hours from the administration of the drug.

amnesia induced by ECS [7] = assay: Effect against amnesia induced by ECS, passive avoidance, pretreatment with drug administration (Pharmacological Test Example 5); format: in vivo, rat; details: 3 mg/kg p.o.; for Latent reaction time, acquisition test: control 8.6 ± 1.3; for Latent reaction time, 2 hours later: control 49.2 ± 8.1; for Latent reaction time, 2 hours later / Latent reaction time, 24 hours later: * P < 0.05 vs control; for Latent reaction time, 24 hours later: control 85.6 ± 22.0
Text: (§4) By using male rats having a body weight of about 200 g, the antiamnesic effect was examined on the basis of one trial passive avoidance reaction as an index. Namely, a rat is put in a light chamber of an operant box comprising the light chamber and a dark chamber, and when the rat entered into the dark chamber, an electric stimulation (5 mA for 10 seconds) was applied from the floor and immediately an electric shock (30 mA, 0.75 second) (hereinafter referred to simply as ECS) was applied to the head of the rat. Two hours or 24 hours after the ECS, the rat was put in the light chamber, and the time until the rat entered from the light chamber to the dark chamber (the latent reaction time) was measured,
The drug was suspended in a 0.5 wt % methyl cellulose and orally administered three times at intervals of 24 hours so that the final administration was conducted one hour prior to ECS.

amnesia induced by ECS [8] = assay: Effect against amnesia induced by ECS, passive avoidance, post-treatment with drug administration (Pharmacological Test Example 5); format: in vivo, rat; details: 1 mg/kg p.o.
Text: as §4
In a separate test, the drug was orally administered at the same time as ECS, and the latent reaction time was measured two hours later, or NB-818 was again administered 22 hours later and then the latent reaction time was measured two hours later.

[9] = Acute toxicity (LD50) upon oral administration to rats; details: rat, in vivo
Text: Thus, it is particularly advantageous for the treatment and prevention of the above diseases, for which continuous administration for a long period of time is obliged. Thus, its value as a pharmaceutical is very high.

COC(=O)C1=C(C)NC(COC(N)=O)=C(C(=O)OC(C)C)C1c1cccc(Cl)c1Cl (single isomer, unassigned; (+)) [(+)-NB-818]
Change in femoral artery blood flow (vertebral artery [1]; 0.1 mg/kg): +18.8% | Change in heart rate (vertebral artery [1]; 0.1 mg/kg): +3.8% | Change in blood pressure (vertebral artery [2]; 0.1 mg/kg, intravenous): -8.1% | Change in vertebral artery blood flow (vertebral artery [2]; 0.1 mg/kg, intravenous): +56.8% | Effective period (Half-life period) (vertebral artery [2]; 0.1 mg/kg, intravenous): 15.5 min

COC(=O)C1=C(C)NC(COC(N)=O)=C(C(=O)OC(C)C)C1c1cccc(Cl)c1Cl (single isomer, unassigned; (-)) [(-)-NB-818, levo-rotatory optical isomer of 2-carbamoyloxymethyl-4-(2,3-dichlorophenyl)-6-methyl-1,4-dihydropyridine-3,5-dicarboxylic acid 3-isopropyl ester 5-methyl ester]
Change in femoral artery blood flow (vertebral artery [1]; 0.01 mg/kg): +3.3% | Change in heart rate (vertebral artery [1]; 0.01 mg/kg): +3.4% | Change in vertebral artery blood flow (vertebral artery [1]; 0.01 mg/kg): +123.2% | Effective period (Half-life period) (vertebral artery [1]; 0.01 mg/kg): 44 min | Change in blood pressure (vertebral artery [2]; 0.01 mg/kg, intravenous): -26.6%

COC(=O)C1=C(C)NC(COC(N)=O)=C(C(=O)OC)C1c1cccc(Cl)c1Cl (stereo not shown) [Compound A, 2-Carbamoyloxymethyl-4-(2,3-dichlorophenyl)-6-methyl-1,4-dihydropyridine-3,5-dicarboxylic acid 3,5-dimethyl ester]
Change in blood pressure (vertebral artery [3]; 0.01 mg/kg iv): -13% | Change in femoral artery blood flow (vertebral artery [3]; 0.01 mg/kg iv): +14% | Change in vertebral artery blood flow (vertebral artery [3]; 0.01 mg/kg iv): +76% | Effective period (Half-life period) (vertebral artery [3]; 0.01 mg/kg iv): 9 min

CCOC(=O)C1=C(COC(N)=O)NC(C)=C(C(=O)OC)C1c1cccc(Cl)c1Cl (stereo not shown) [Compound B, 2-Carbamoyloxymethyl-4-(2,3-dichlorophenyl)-6-methyl-1,4-dihydropyridine-3,5-dicarboxylic acid 3-ethyl ester 5-methyl ester]
Change in blood pressure (vertebral artery [3]; 0.01 mg/kg iv): -14% | Change in femoral artery blood flow (vertebral artery [3]; 0.01 mg/kg iv): +16% | Change in vertebral artery blood flow (vertebral artery [3]; 0.01 mg/kg iv): +50% | Effective period (Half-life period) (vertebral artery [3]; 0.01 mg/kg iv): 36 min

CCCOC(=O)C1=C(COC(N)=O)NC(C)=C(C(=O)OC)C1c1cccc(Cl)c1Cl (stereo not shown) [Compound C, 2-Carbamoyloxymethyl-4-(2,3-dichlorophenyl)-6-methyl-1,4-dihydropyridine-3,5-dicarboxylic acid 3-propyl ester 5-methyl ester]
Change in blood pressure (vertebral artery [3]; 0.01 mg/kg iv): -15% | Change in femoral artery blood flow (vertebral artery [3]; 0.01 mg/kg iv): +20% | Change in vertebral artery blood flow (vertebral artery [3]; 0.01 mg/kg iv): +95% | Effective period (Half-life period) (vertebral artery [3]; 0.01 mg/kg iv): 42 min

CCCCOC(=O)C1=C(COC(N)=O)NC(C)=C(C(=O)OC)C1c1cccc(Cl)c1Cl (stereo not shown) [Compound D, 2-Carbamoyloxymethyl-4-(2,3-dichlorophenyl)-6-methyl-1,4-dihydropyridine-3,5-dicarboxylic acid 3-butyl ester 5-methyl ester]
Change in blood pressure (vertebral artery [3]; 0.01 mg/kg iv): -14% | Change in femoral artery blood flow (vertebral artery [3]; 0.01 mg/kg iv): +13% | Change in vertebral artery blood flow (vertebral artery [3]; 0.01 mg/kg iv): +80% | Effective period (Half-life period) (vertebral artery [3]; 0.01 mg/kg iv): 44 min

COC(=O)C1=C(C)NC(COC(N)=O)=C(C(=O)OC(C)C)C1c1cccc(Cl)c1Cl (stereo not shown) [NB-818, 2-Carbamoyloxymethyl-4-(2,3-dichlorophenyl)-6-methyl-1,4-dihydropyridine-3,5-dicarboxylic acid 3-isopropyl ester 5-methyl ester]
Change in blood pressure (vertebral artery [3]; 0.01 mg/kg iv): -14% | Change in femoral artery blood flow (vertebral artery [3]; 0.01 mg/kg iv): +12% | Change in vertebral artery blood flow (vertebral artery [3]; 0.01 mg/kg iv): +109% | Effective period (Half-life period) (vertebral artery [3]; 0.01 mg/kg iv): 57 min | Change in blood pressure (vertebral artery [3]; 0.1 mg/kg id (intraduodenal)): -18% | Change in femoral artery blood flow (vertebral artery [3]; 0.1 mg/kg id (intraduodenal)): +36% | Change in vertebral artery blood flow (vertebral artery [3]; 0.1 mg/kg id (intraduodenal)): +135% | Effective period (Half-life period) (vertebral artery [3]; 0.1 mg/kg id (intraduodenal)): > 300 min | influence over the blood pressure and the heart rate (vertebral artery [3]; at dose level selectively increasing vertebral artery blood flow): minimum | Change in blood pressure [4]: -20% | Change in cerebral cortex blood flow [4]: +28% | Change in heart rate [4]: +16% | Effective period (Half-life period) [4]: > 60 min | Blood flow change, cerebellum blood flow [5]: +85% | Blood flow change, cerebral blood flow [5]: +82% | Blood flow change, femoral muscle blood flow [5]: +3% | Effective period (Half-life period) [5]: 44.6 min | Mortality, 0-8 hours [6]: 38.5% | Mortality, 0-24 hours [6]: 76.9% | Latent reaction time, acquisition test (amnesia induced by ECS [7]): 11.4 ± 1.3 s | Latent reaction time, 2 hours later (amnesia induced by ECS [7]): 128.8 ± 21.8 s | Latent reaction time, 24 hours later (amnesia induced by ECS [7]): 189.6 ± 24.6 s | Latent reaction time, acquisition test (amnesia induced by ECS [8]; control 9.0 ± 1.5): 8.3 ± 1.2 s | Latent reaction time, 2 hours later (amnesia induced by ECS [8]; control 30.6 ± 3.0, * P < 0.05 vs control): 88.5 ± 17.9 s | Latent reaction time, 24 hours later (amnesia induced by ECS [8]; control 42.5 ± 9.0, * P < 0.05 vs control): 111.8 ± 21.5 s | LD50 [9]: ≥ 3000 mg/kg

COC(=O)C1=C(C)NC(C)=C(C(=O)OCCN(C)Cc2ccccc2)C1c1cccc([N+](=O)[O-])c1 (stereo not shown) [Nicardipine, nicardipine]
Change in blood pressure [4]: -24% | Change in cerebral cortex blood flow [4]: +16% | Change in heart rate [4]: +18% | Effective period (Half-life period) [4]: < 30 min | Mortality, 0-8 hours [6]: 83.3% | Mortality, 0-24 hours [6]: 91.7%

COCCOC(=O)C1=C(C)NC(C)=C(C(=O)OC(C)C)C1c1cccc([N+](=O)[O-])c1 (stereo not shown) [Nimodipine, nimodipine]
Change in blood pressure (vertebral artery [3]; 0.3 mg/kg id (intraduodenal)): -29% | Change in femoral artery blood flow (vertebral artery [3]; 0.3 mg/kg id (intraduodenal)): +75% | Change in vertebral artery blood flow (vertebral artery [3]; 0.3 mg/kg id (intraduodenal)): +102% | Effective period (Half-life period) (vertebral artery [3]; 0.3 mg/kg id (intraduodenal)): 150 min | Blood flow change, cerebellum blood flow [5]: +55% | Blood flow change, cerebral blood flow [5]: +68% | Blood flow change, femoral muscle blood flow [5]: -5% | Effective period (Half-life period) [5]: 20.6 min | Mortality, 0-8 hours [6]: 83.3% | Mortality, 0-24 hours [6]: 91.7% | Latent reaction time, acquisition test (amnesia induced by ECS [7]): 9.6 ± 1.3 s | Latent reaction time, 2 hours later (amnesia induced by ECS [7]): 103.9 ± 22.2 s | Latent reaction time, 24 hours later (amnesia induced by ECS [7]): 132.1 ± 25.5 s | Change in blood pressure (vertebral artery [2]; 0.3 mg/kg, intraduodenal): -29% | Change in femoral artery blood flow (vertebral artery [2]; 0.3 mg/kg, intraduodenal): +75% | Change in heart rate (vertebral artery [2]; 0.3 mg/kg, intraduodenal): -23% | Change in vertebral artery blood flow (vertebral artery [2]; 0.3 mg/kg, intraduodenal): +102% | Effective period (Half-life period) (vertebral artery [2]; 0.3 mg/kg, intraduodenal): 150 min
